In patent US4058512A, “Synthetic peptides having growth promoting activity” (AB Kabi, priority 1975, dated 1977):
Bridge positions count the residues as written; N and C are the ends. Peptide text beside a SMILES is read from it.

System: human embryonic lung fibroblasts
Test: Growth promoting activity in human embryonic lung fibroblasts, cell counting in a counting chamber
Assay type: cell-based
Conditions: for Growth stimulation in %: per cent increase over basal value with 0.67% calf serum; for No. of cells × 10^6: 0.67% calf serum
Protocol: Tests of the growth promoting activity have been performed in human embryonic lung fibroblasts and the growth promoting activity is measured by cell counting in a counting chamber and expressed as per cent increase over a basal value obtained with using 0.67% calf serum.

C[C@@H](O)[C@H](NC(=O)[C@@H]1CSSC[C@H](NC(=O)[C@H](CO)NC(=O)[C@H](CCC(=O)O)NC(=O)[C@H](CCC(N)=O)NC(=O)[C@@H](N)CC(=O)O)C(=O)N[C@@H](CCCCN)C(=O)NCC(=O)N[C@@H](CCCNC(=N)N)C(=O)N1)C(=O)N[C@@H](CCC(=O)O)C(=O)NCC(=O)N[C@@H](Cc1ccccc1)C(=O)O [tridecapeptide (cyclic)] (H-DQESCKGRCTEGF-OH; disulfide 5-9)
Growth stimulation in % (1 μg per ml medium): 14% | No. of cells × 10^6 (1 μg tridecapeptide per ml medium): 2.35 × 10^6 | Growth stimulation in % (5 μg per ml medium): 66% | No. of cells × 10^6 (5 μg tridecapeptide per ml medium): 3.4 × 10^6 | Growth stimulation in % (10 μg per ml medium): 60% | No. of cells × 10^6 (10 μg tridecapeptide per ml medium): 3.3 × 10^6 | Growth stimulation in % (25 μg per ml medium): 51% | No. of cells × 10^6 (25 μg tridecapeptide per ml medium): 3.1 × 10^6 | Growth stimulation in % (50 μg per ml medium): 31% | No. of cells × 10^6 (50 μg tridecapeptide per ml medium): 2.7 × 10^6 | Effect on total number of cells produced (dosages higher than 10 μug. per ml. of medium): slight inhibitory effect | Effect on total number of cells produced (dosages of from 1 to 10 μug. of polypeptide per ml. of medium): dose related increase
